In DBAASP one finds MIC data, which are given here for four compounds.

SMILES strings stand for the structures. In brackets after ≈: the same amount, converted by molar mass.

Assay in all cases: ≥ marks a high value that may be exact or a test limit, other limits are often not marked, values filed in µg/mL are converted to µM
The test system of assay [1] is Staphylococcus aureus ATCC 29740.
Assay [2] concerns Bacillus subtilis.
Assay [3] concerns Staphylococcus saprophyticus ATCC 19701.
The test system of assay [4] is Klebsiella pneumoniae ATCC 13882.
Assay [5] relates to Bacillus cereus ATCC 14579.
The subject of assay [6] is Listeria monocytogenes EGD.
Assay [7] relates to Escherichia coli.
Assay [8] deals with Salmonella enterica subsp. enterica serovar Enteritidis ATCC 13076.
In assay [9] the test system is Staphylococcus haemolyticus DSM 20263.
In assay [10] the test system is Enterobacter cloacae ATCC 13047.
Assay [11] has as its system Salmonella enterica subsp. enterica serovar Typhimurium ATCC 14028.
Assay [12] has as its system Salmonella enterica subsp. enterica serovar Enteritidis LA5.
In assay [13] the test system is Pseudomonas aeruginosa ATCC 25010.
Assay [14] relates to Trichosporon beigelii KCTC 7707.
For assay [15], the system named is Proteus vulgaris KCTC 2433.
The subject of assay [16] is Bacillus subtilis KCTC 1918.
The test system of assay [17] is Candida albicans TIMM 1768.
For assay [18], the system named is Saccharomyces cerevisiae KCTC 7296.
In assay [19] the test system is Salmonella typhimurium KCTC 1926.
In assay [20] the test system is Staphylococcus aureus KCTC 1621.
Assay [21] has as its system Pseudomonas aeruginosa IFO 12582.
For assay [22], the system named is Staphylococcus aureus IFO 12732.
In assay [23] the test system is Bacillus subtilis IFO 3143.
The test system of assay [24] is Escherichia coli IFO 12734.
The subject of assay [25] is Corynebacterium stationis CIP 101282.
The subject of assay [26] is Micrococcus luteus A270.
Assay [27] has as its system Vibrio splendidus CIP 107715.
For assay [28], the system named is Escherichia coli SBS 363.
The subject of assay [29] is Fusarium oxysporum.
The subject of assay [30] is Microbacterium maritypicum CIP 105733T.
In assay [31] the test system is Vibrio aestuarianus CIP 109791.
The test system of assay [32] is Vibrio coralliilyticus YB1 CIP 107925.
In assay [33] the test system is Bacillus megaterium IBMC.
The test system of assay [34] is Staphylococcus aureus SG511.

For the compound `CC[C@H](C)[C@H](NC(=O)[C@H](CCCN=C(N)N)NC(=O)[C@H](CCCCN)NC(=O)[C@@H]1CSSC[C@@H]2NC(=O)[C@H](CCCCN)NC(=O)[C@H](CC(C)C)NC(=O)[C@H](Cc3ccccc3)NC(=O)[C@H](C)NC(=O)[C@@H]3CSSC[C@H](NC(=O)[C@H](CCCCN)NC(=O)CNC(=O)[C@H](CO)NC(=O)[C@H]([C@@H](C)CC)NC(=O)[C@H](CC(C)C)NC(=O)[C@H]([C@@H](C)O)NC(=O)[C@H](CC(C)C)NC(=O)[C@H](CO)NC(=O)[C@@H]4CCCN4C2=O)C(=O)N[C@@H](CO)C(=O)N[C@@H](CCCN=C(N)N)C(=O)N[C@@H](Cc2ccccc2)C(=O)N[C@@H](Cc2ccc(O)cc2)C(=O)N[C@@H](CC(C)C)C(=O)N[C@@H](CSSC[C@H](NC(=O)[C@H](CC(=O)O)NC(=O)[C@H](CO)NC(=O)[C@H](CCCCN)NC(=O)[C@H](CCCN=C(N)N)NC(=O)CN)C(=O)N[C@@H](Cc2ccccc2)C(=O)N[C@@H](CCCN=C(N)N)C(=O)N[C@@H](CCCCN)C(=O)N[C@@H](CO)C(=O)NCC(=O)N[C@@H](Cc2ccccc2)C(=O)N3)C(=O)N1)C(=O)N[C@@H](Cc1c[nH]c2ccccc12)C(N)=O` [GRKSDCFRKSGFCAFLKCPSLTLISGKCSRFYLCCKRIW], the minimum inhibitory concentration (MIC) (usually the least concentration at which growth counts as inhibited) in assay [1] stood at 0.06 µM (≈ 0.27 µg/mL); in assay [2] it was 0.187 µM (≈ 0.844 µg/mL); in [3], 0.147 µM (≈ 0.662 µg/mL); in assay [4] it was 0.0872 µM (≈ 0.393 µg/mL); in [5], 0.208 µM (≈ 0.938 µg/mL); in assay [6] it was 0.236 µM (≈ 1.06 µg/mL). Besides, the MIC in [7] stood at 0.256 µM (≈ 1.15 µg/mL); in assay [8], 0.163 µM (≈ 0.732 µg/mL); in assay [9] it was 0.13 µM (≈ 0.584 µg/mL); in assay [10], 0.177 µM (≈ 0.799 µg/mL); in assay [11] it was 0.139 µM (≈ 0.624 µg/mL); in [12] it was 0.147 µM (≈ 0.662 µg/mL). The minimum inhibitory concentration (MIC) in [13] is 0.244 µM (≈ 1.1 µg/mL).

Turning to `CC[C@H](C)[C@H](NC(=O)CNC(=O)[C@H](CC(C)C)NC(=O)[C@H](CCCN=C(N)N)NC(=O)[C@H](CCCCN)NC(=O)[C@H](Cc1ccccc1)NC(=O)[C@@H](NC(=O)[C@H](CCCCN)NC(=O)[C@H](CCCCN)NC(=O)[C@H](C)N)C(C)C)C(=O)NCC(=O)N[C@@H](C)C(=O)N[C@H](C(=O)N[C@@H](CC(C)C)C(=O)N[C@@H](Cc1c[nH]c2ccccc12)C(=O)N[C@H](C(=O)N[C@@H](CC(C)C)C(=O)N[C@H](C(=O)N[C@H](C(=O)NCC(=O)O)[C@@H](C)O)[C@@H](C)O)C(C)C)C(C)C` [AKKVFKRLGIGAVLWVLTTG], the minimal inhibitory concentration (MIC) in [14] is at least 50 µM; in assay [15], 12.5 µM (≈ 27 µg/mL); in assay [16] it was 3.12 µM (≈ 6.73 µg/mL); in assay [17] it was at least 50 µM; in assay [18] it was at least 50 µM; in assay [19], 0.78 µM (≈ 1.68 µg/mL). The compound further gave an MIC in [20] of 3.12 µM (≈ 6.73 µg/mL).

For `CC(C)C[C@H](NC(=O)[C@H](Cc1ccc(O)cc1)NC(=O)[C@H](Cc1cnc[nH]1)NC(=O)[C@@H](NC(=O)[C@H](CC(C)C)NC(=O)[C@H](C)NC(=O)[C@H](C)NC(=O)[C@H](CCCCN)NC(=O)[C@H](C)NC(=O)[C@@H](NC(=O)[C@H](Cc1cnc[nH]1)NC(=O)[C@H](CCCCN)NC(=O)[C@H](C)NC(=O)[C@@H](NC(=O)[C@H](Cc1cnc[nH]1)NC(=O)[C@H](C)NC(=O)[C@H](C)NC(=O)[C@H](CCCCN)NC(=O)[C@H](CCCCN)NC(=O)[C@H](Cc1ccccc1)NC(=O)[C@H](Cc1ccccc1)NC(=O)[C@H](CO)NC(=O)[C@H](C)NC(=O)[C@H](Cc1c[nH]c2ccccc12)NC(=O)[C@H](C)N)C(C)C)C(C)C)[C@@H](C)O)C(=O)O` [AWASFFKKAAHVAKHVAKAALTHYL], the MIC was found to be 1.45 µM (≈ 4 µg/mL) in [21], 0.723 µM (≈ 2 µg/mL) in [22], 0.723 µM (≈ 2 µg/mL) in [23] and 0.723 µM (≈ 2 µg/mL) in assay [24].

Turning to `CC[C@H](C)[C@@H]1NC(=O)CNC(=O)[C@H](CCCCN)NC(=O)[C@H](CCCCN)NC(=O)[C@H](CC(=O)O)NC(=O)[C@@H]2CSSC[C@@H]3NC(=O)[C@H](CO)NC(=O)[C@H](Cc4ccc(O)cc4)NC(=O)[C@H](CO)NC(=O)[C@H](CSSC[C@H](NC(=O)[C@H](Cc4ccccc4)NC(=O)[C@H]([C@@H](C)O)NC(=O)[C@H](CCCCN)NC(=O)CNC(=O)[C@H](CCCN=C(N)N)NC(=O)[C@H](CC(C)C)NC(=O)[C@H](CC(=O)O)NC(=O)[C@H](C)NC(=O)[C@@H](NC(=O)[C@H](C)N)CSSC[C@@H](C(=O)N[C@@H](CCCN=C(N)N)C(N)=O)NC(=O)CNC3=O)C(=O)N[C@@H](CCCN=C(N)N)C(=O)N[C@@H](CC(C)C)C(=O)N[C@@H](Cc3ccccc3)C(=O)N[C@@H](CCCCN)C(=O)N[C@@H](CO)C(=O)N[C@@H](Cc3ccc(O)cc3)C(=O)N2)NC(=O)[C@H](CCCCN)NC(=O)[C@H](CC(=O)O)NC(=O)[C@H](CCCN=C(N)N)NC(=O)[C@H](CCSC)NC(=O)[C@H](CC(C)C)NC(=O)[C@H](CCCN=C(N)N)NC(=O)CNC(=O)[C@H](CCCN=C(N)N)NC1=O` [ACADLRGKTFCRLFKSYCDKKGIRGRLMRDKCSYSCGCR], the minimal inhibitory concentration (MIC) in [25] amounted to 10 µM (≈ 44.9 µg/mL); in [26] it was 1.25 µM (≈ 5.61 µg/mL); in assay [27], 20 µM (≈ 89.8 µg/mL); in [28], 10 µM (≈ 44.9 µg/mL); in [29] it was 1.25 µM (≈ 5.61 µg/mL); in assay [30], 20 µM (≈ 89.8 µg/mL). In addition, the minimum inhibitory concentration (MIC) in assay [31] turned out to be 20 µM (≈ 89.8 µg/mL); in assay [32], 20 µM (≈ 89.8 µg/mL); in [33], 20 µM (≈ 89.8 µg/mL); in [34] it was 5 µM (≈ 22.5 µg/mL).
